Among the data in patent US11524944B2, “2-phenylpyrimidine-4-carboxamides as AHR inhibitors” (Bayer Aktiengesellschaft, priority 2017, dated 2022) are IC50 values, retold here.

Some results are limits rather than exact numbers.

The experiment concerns the target T1, Human AhR (Homo sapiens, UniProt P35869).
T1 construct: host or cells: U87 glioblastoma cells, stably transfected with a DRE firefly luciferase reporter and a constitutive renilla reporter
T1 sequence (P35869 11-848): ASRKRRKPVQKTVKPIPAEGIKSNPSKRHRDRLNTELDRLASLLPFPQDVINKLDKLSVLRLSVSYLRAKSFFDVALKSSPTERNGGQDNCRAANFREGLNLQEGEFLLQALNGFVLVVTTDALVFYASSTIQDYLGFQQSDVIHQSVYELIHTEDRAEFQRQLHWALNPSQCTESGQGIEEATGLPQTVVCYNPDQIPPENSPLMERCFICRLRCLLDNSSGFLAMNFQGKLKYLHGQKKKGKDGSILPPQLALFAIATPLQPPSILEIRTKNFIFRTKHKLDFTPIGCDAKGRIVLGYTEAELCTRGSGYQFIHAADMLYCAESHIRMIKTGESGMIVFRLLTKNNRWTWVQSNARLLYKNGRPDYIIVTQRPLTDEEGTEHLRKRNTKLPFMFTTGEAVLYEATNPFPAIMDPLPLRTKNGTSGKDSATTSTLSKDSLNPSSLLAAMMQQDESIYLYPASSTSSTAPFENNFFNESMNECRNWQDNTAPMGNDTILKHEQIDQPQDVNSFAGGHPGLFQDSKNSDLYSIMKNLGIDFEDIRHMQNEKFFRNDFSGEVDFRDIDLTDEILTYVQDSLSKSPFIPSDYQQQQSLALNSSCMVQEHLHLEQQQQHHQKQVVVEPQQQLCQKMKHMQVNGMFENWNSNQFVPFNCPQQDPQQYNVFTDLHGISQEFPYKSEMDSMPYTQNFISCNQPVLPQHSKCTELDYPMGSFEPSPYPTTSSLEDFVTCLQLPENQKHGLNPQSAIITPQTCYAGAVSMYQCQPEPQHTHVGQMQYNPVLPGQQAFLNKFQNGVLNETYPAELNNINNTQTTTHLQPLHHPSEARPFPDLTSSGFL
Put plainly: Transactivation assay in human cell line (in vitro assay 1): antagonism. The class given is cell-based. The following applies: U87 glioblastoma cells, AHR inducible firefly luciferase reporter (DRE), 150 μM kynurenic acid, 20 hours. The protocol:
Examples were tested in selected biological assays one or more times. When tested more than once, data are reported as either average values or as median values, wherein • the average value, also referred to as the arithmetic mean value, represents the sum of the values obtained divided by the number of times tested, and • the median value represents the middle number of the group of values when ranked in ascending or descending order. If the number of values in the data set is odd, the median is the middle value. If the number of values in the data set is even, the median is the arithmetic mean of the two middle values.
Transactivation Assay in Human Cell Line (In Vitro Assay 1)
Transactivation assay was carried out in U87 glioblastoma cells (ATCC) endogenously expressing AHR. In addition the cells were stably transfected with an AHR inducible firefly luciferase reporter gene construct that carried AHR-binding sites (DRE) in its promoter and a renilla reporter gene construct with constitutively active promoter. Kynurenic acid is an endogenous AHR activating ligand and was used to prestimulate test cells prior to testing the antagonistic properties of compounds.
In Vitro Assay 1: Antagonism in Human Cell Line
Firefly luciferase and Renilla activity was determined by the DualGlo Luciferase Assay System (Promega, #2920). Renilla activity was used to assess toxic effects of compounds.
A general note: In a reporter assay the amount or activity of a reporter protein is the signal.

On to `CC(C)(O)CNC(=O)c1cc(-c2ccc(Cl)cc2)nc(-c2cccc(F)c2)n1` [Example 1, 6-(4-Chlorophenyl)-2-(3-fluorophenyl)-N-(2-hydroxy-2-methylpropyl)pyrimidine-4-carboxamide], for which the IC50 is greater than 20000 nM.

Molecule `CC(C)(O)CNC(=O)c1cc(-c2ccc(OC(F)(F)F)cc2)nc(-c2ccc(F)cc2)n1` [Example 13, 2-(4-fluorophenyl)-N-(2-hydroxy-2-methylpropyl)-6-[4-(trifluoromethoxy)phenyl]pyrimidine-4-carboxamide] displayed an IC50 of 26 nM.

Turning to `CC(C)(O)CNC(=O)c1cc(-c2ccc(OC(F)(F)F)cc2)nc(-c2ccc(C(F)F)cc2)n1` [Example 25, 2-[4-(difluoromethyl)phenyl]-N-(2-hydroxy-2-methylpropyl)-6-[4-(trifluoromethoxy)phenyl]pyrimidine-4-carboxamide], the half-maximal inhibitory concentration (IC50) is greater than 20000 nM. `CC(C)(O)CNC(=O)c1cc(-c2ccc(OC(F)(F)F)cc2)nc(-c2cc(F)cc(C#N)c2)n1` [Example 26, 2-(3-cyano-5-fluorophenyl)-N-(2-hydroxy-2-methylpropyl)-6-[4-(trifluoromethoxy)phenyl]pyrimidine-4-carboxamide] yielded a half-maximal inhibitory concentration (IC50) of 40.2 nM. In the case of `COc1ccc(-c2nc(C(=O)N[C@@H](C)CO)cc(-c3ccc(OC(F)(F)F)cc3)n2)cc1` [Example 30, N-[(2S)-1-hydroxypropan-2-yl]-2-(4-methoxyphenyl)-6-[4-(trifluoromethoxy)phenyl]pyrimidine-4-carboxamide], the 50% inhibitory concentration (IC50) is 730 nM. To `C[C@@H](CO)NC(=O)c1cc(-c2ccc(OC(F)(F)F)cc2)nc(-c2cc(Cl)cc(Cl)c2)n1` [Example 34, 2-(3,5-dichlorophenyl)-N-[(2S)-1-hydroxypropan-2-yl]-6-[4-(trifluoromethoxy)phenyl]pyrimidine-4-carboxamide] belongs 170 nM; to `C[C@@H](CO)NC(=O)c1cc(-c2ccc(OC(F)(F)F)cc2)nc(-c2ccc(F)c(C#N)c2)n1` [Example 35, 2-(3-cyano-4-fluorophenyl)-N-[(2S)-1-hydroxypropan-2-yl]-6-[4-(trifluoromethoxy)phenyl]pyrimidine-4-carboxamide], 78.3 nM; to `C[C@@H](CO)NC(=O)c1cc(-c2ccc(OC(F)(F)F)cc2)nc(-c2ccc(Cl)c(Cl)c2)n1` [Example 38, 2-(3,4-dichlorophenyl)-N-[(2S)-1-hydroxypropan-2-yl]-6-[4-(trifluoromethoxy)phenyl]pyrimidine-4-carboxamide], 4350 nM. To `C[C@@H](CO)NC(=O)c1cc(-c2ccc(OC(F)(F)F)cc2)nc(-c2cc(F)cc(C#N)c2)n1` [Example 43, 2-(3-cyano-5-fluorophenyl)-N-[(2S)-1-hydroxypropan-2-yl]-6-[4-(trifluoromethoxy)phenyl]pyrimidine-4-carboxamide] belongs 21.5 nM; to `CC(C)(O)CNC(=O)c1cc(-c2ccc(Cl)cc2)nc(-c2ccc(Br)cc2)n1` [Example 44, 2-(4-bromophenyl)-6-(4-chlorophenyl)-N-(2-hydroxy-2-methylpropyl)pyrimidine-4-carboxamide], greater than 20000 nM.

For `CC(C)(O)CNC(=O)c1cc(-c2ccc(Cl)cc2)nc(-c2ccc(Cl)cc2)n1` [Example 46, 2,6-bis(4-chlorophenyl)-N-(2-hydroxy-2-methylpropyl)pyrimidine-4-carboxamide], the IC50 was 9790 nM. Take `COc1ccc(-c2nc(C(=O)NCC(C)(C)O)cc(-c3ccc(Cl)cc3)n2)cc1` [Example 47, 6-(4-chlorophenyl)-N-(2-hydroxy-2-methylpropyl)-2-(4-methoxyphenyl)pyrimidine-4-carboxamide]: it took 2220 nM to reach half-maximal inhibition (IC50).

The molecule `CC(C)(O)CNC(=O)c1cc(-c2ccc(Cl)cc2)nc(-c2ccc(F)c(C#N)c2)n1` [Example 52, 6-(4-chlorophenyl)-2-(3-cyano-4-fluorophenyl)-N-(2-hydroxy-2-methylpropyl)pyrimidine-4-carboxamide] yielded an IC50 of 112 nM. `CC(C)(O)CNC(=O)c1cc(-c2ccc(Cl)cc2)nc(-c2cc(F)cc(C(F)(F)F)c2)n1` [Example 58, 6-(4-chlorophenyl)-2-[3-fluoro-5-(trifluoromethyl)phenyl]-N-(2-hydroxy-2-methylpropyl)pyrimidine-4-carboxamide] came in with a half-maximal inhibitory concentration (IC50) of 77.6 nM.

As to `CC(C)(O)CNC(=O)c1cc(-c2ccc(Cl)cc2)nc(-c2cc(F)cc(C#N)c2)n1` [Example 62, 6-(4-chlorophenyl)-2-(3-cyano-5-fluorophenyl)-N-(2-hydroxy-2-methylpropyl)pyrimidine-4-carboxamide], the IC50 was found to be 57.8 nM. On to `C[C@@H](CO)NC(=O)c1cc(-c2ccc(Cl)cc2)nc(-c2cc(Cl)cc(Cl)c2)n1` [Example 67, 6-(4-chlorophenyl)-2-(3,5-dichlorophenyl)-N-[(2S)-1-hydroxypropan-2-yl]pyrimidine-4-carboxamide], for which the midpoint of inhibition, the IC50, lay at 101 nM. `C[C@@H](CO)NC(=O)c1cc(-c2ccc(Cl)cc2)nc(-c2ccc(F)c(C#N)c2)n1` [Example 68, 6-(4-chlorophenyl)-2-(3-cyano-4-fluorophenyl)-N-[(2S)-1-hydroxypropan-2-yl]pyrimidine-4-carboxamide]: the IC50 came to 102 nM. Turning to `C[C@@H](CO)NC(=O)c1cc(-c2ccc(Cl)cc2)nc(-c2ccc(Cl)c(Cl)c2)n1` [Example 72, 6-(4-chlorophenyl)-2-(3,4-dichlorophenyl)-N-[(2S)-1-hydroxypropan-2-yl]pyrimidine-4-carboxamide], the concentration for half-maximal inhibition (IC50) was 361 nM. Take `C[C@@H](CO)NC(=O)c1cc(-c2ccc(Cl)cc2)nc(-c2ccc(OC(F)(F)F)cc2)n1` [Example 73, 6-(4-chlorophenyl)-N-[(2S)-1-hydroxypropan-2-yl]-2-[4-(trifluoromethoxy)phenyl]pyrimidine-4-carboxamide]: the IC50 was found to be 9720 nM.

Molecule `C[C@@H](CO)NC(=O)c1cc(-c2ccc(Cl)cc2)nc(-c2cc(F)cc(C(F)(F)F)c2)n1` [Example 75, 6-(4-chlorophenyl)-2-[3-fluoro-5-(trifluoromethyl)phenyl]-N-[(2S)-1-hydroxypropan-2-yl]pyrimidine-4-carboxamide] registered an IC50 of 97.8 nM. Then `Cc1cc(F)cc(-c2nc(C(=O)N[C@@H](C)CO)cc(-c3ccc(Cl)cc3)n2)c1` [Example 77, 6-(4-chlorophenyl)-2-(3-fluoro-5-methylphenyl)-N-[(2S)-1-hydroxypropan-2-yl]pyrimidine-4-carboxamide], with 26.4 nM; and `CC(O)C(NC(=O)c1cc(-c2ccc(OC(F)(F)F)cc2)nc(-c2cccc(F)c2)n1)C(F)(F)F` (stereo not shown) [Example 91, 2-(3-fluorophenyl)-N-(1,1,1-trifluoro-3-hydroxybutan-2-yl)-6-[4-(trifluoromethoxy)phenyl]pyrimidine-4-carboxamide], with greater than 20000 nM.

The IC50 is the point on the concentration scale where inhibition reaches its midpoint.
